Laboratory results reported in BindingDB's records for doi:10.1021/acs.jmedchem.3c01572 (China Pharmaceutical University, 2023).

How the values were obtained:
[1] = target: Cyclin-dependent kinase 4/Cyclin D1; assay: Inhibition of CDK4/Cyclin D1 (unknown origin)
[2] = target: Neuropilin-1 (Homo sapiens) (UniProt O14786); assay: Inhibition of [125I]-VEGF-A165 binding to NRP1 (unknown origin) transfected in HUVECs incubated for 2 hrs by plate reader analysis
Chain of Neuropilin-1 (Homo sapiens) (O14786 whole entry, looked up): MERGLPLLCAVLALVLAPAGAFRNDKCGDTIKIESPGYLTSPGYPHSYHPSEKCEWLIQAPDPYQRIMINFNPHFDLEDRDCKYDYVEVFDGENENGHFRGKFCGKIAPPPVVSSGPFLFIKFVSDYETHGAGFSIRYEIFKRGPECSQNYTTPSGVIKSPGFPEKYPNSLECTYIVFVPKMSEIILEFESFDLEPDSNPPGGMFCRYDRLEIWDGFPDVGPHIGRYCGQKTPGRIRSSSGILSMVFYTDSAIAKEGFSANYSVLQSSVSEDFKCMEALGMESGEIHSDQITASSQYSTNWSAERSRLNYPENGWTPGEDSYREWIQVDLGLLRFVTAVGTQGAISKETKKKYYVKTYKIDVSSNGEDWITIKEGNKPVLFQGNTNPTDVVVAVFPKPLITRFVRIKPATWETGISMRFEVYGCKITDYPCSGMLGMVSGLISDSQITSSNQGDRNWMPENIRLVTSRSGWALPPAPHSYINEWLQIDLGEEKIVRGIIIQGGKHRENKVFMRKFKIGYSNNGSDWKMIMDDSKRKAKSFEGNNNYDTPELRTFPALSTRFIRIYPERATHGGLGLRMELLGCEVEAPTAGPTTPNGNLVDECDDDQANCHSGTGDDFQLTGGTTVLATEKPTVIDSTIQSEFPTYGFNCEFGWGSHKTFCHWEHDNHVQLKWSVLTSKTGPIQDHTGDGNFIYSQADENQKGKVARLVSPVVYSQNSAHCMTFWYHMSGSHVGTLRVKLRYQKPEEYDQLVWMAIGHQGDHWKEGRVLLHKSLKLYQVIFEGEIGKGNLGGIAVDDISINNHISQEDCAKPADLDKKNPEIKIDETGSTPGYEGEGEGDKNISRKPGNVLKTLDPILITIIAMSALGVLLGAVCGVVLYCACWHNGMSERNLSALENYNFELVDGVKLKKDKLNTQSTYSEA

Row | IC50 [1] [µM] | IC50 [2] [µM] | SMILES
1 | > 10 | 0.85 | COc1ccc(/C=C\c2cc(OC)c(OC)c(OC)c2)cc1NC(=O)CCC(=O)N[C@@H](CCCNC(=N)N)C(=O)O
2 |  | 3.91 | COc1ccc(/C=C\c2cc(OC)c(OC)c(OC)c2)cc1NC(=O)/C=C/C(=O)N[C@@H](CCCNC(=N)N)C(=O)O
3 |  | 6.33 | COc1ccc(/C=C\c2cc(OC)c(OC)c(OC)c2)cc1NC(=O)CCCC(=O)N[C@@H](CCCNC(=N)N)C(=O)O
4 |  | 8.94 | COc1ccc(/C=C\c2cc(OC)c(OC)c(OC)c2)cc1NC(=O)CCCCC(=O)N[C@@H](CCCNC(=N)N)C(=O)O
5 |  | 15 | COc1ccc(/C=C\c2cc(OC)c(OC)c(OC)c2)cc1NC(=O)CCCCCCC(=O)N[C@@H](CCCNC(=N)N)C(=O)O
6 |  | 2.91 | NC(N)=NCCC[C@H](NC(=O)c1sccc1NS(=O)(=O)c1cccc2nsnc12)C(=O)O [(S)-2-(3-(benzo[c][1,2,5]thiadiazole-4-sulfonamido)thiophene-2-carboxamido)-5-guanidinopentanoic acid]
